Experimental data as given in patent publication US9238697B2, “Polymeric materials and methods” (The Regents of the University of California, priority 2005, dated 2016).
Non-standard residues stand in square brackets, D forms with d. Residues, ends and D or L forms follow the SMILES beside them. ξ: configuration not given here. *: point of attachment. Boc = CC(C)(C)OC(=O)*; ξK = NCCCCC(N)C(=O)O

Test: Solubility of peptide monomer
Format: physicochemical
Details: water, or water/solvent mixtures
Experimental: As described further below, Poly 1-3 were tested for gene delivery applications. As contemplated structures are highly adaptable, structural variations can be made with relative ease to optimize gene transfection levels while maintaining relatively low levels of cytotoxicity. Initial manipulations were performed involving lengthening the peptidyl monomer sequence with additional L-lysine residues to thereby increase the charge density of the polymer overall and to thereby offer stronger DNA binding. It should be recognized that where increased charge density improves the gene transfectability of the polymer system, more residues can be added until an optimal length is found. […] For this reason, solution phase polymerizations were attempted to yield small polymer chains and cyclic structures. One example of cyclic structures is given in Structure VI below.

solubility: insoluble
Compound: COC(=O)[C@H](CCCCN)NC(=O)C(CCCCNC(=O)OC(C)(C)C)NC(=O)C(CCCCNC(=O)OC(C)(C)C)NC(=O)C(CCCCNC(=O)OC(C)(C)C)NC(=O)[C@H](CCCCN)NC(=O)OC(C)(C)C (stereo partly shown) [pentalysine monomer] (Boc-K[ξK](Boc)[ξK](Boc)[ξK](Boc)K-OMe)
